In patent US20250099405A1, “COMPOSITIONS, METHODS, AND DEVELOPMENT OF ARID4B INHIBITORS” (University of Kentucky Research Foundation, priority 2022, published 2025):

Legend:
MCF7 xenograft = MCF7 xenograft model; format: in vivo, SCID mice; settings: 25 mg/kg once every two days for 24 days
Protocol: The effects of RWR18 on tumor growth was determined using MCF7 xenograft model. When tumor in SCID mice reached 150-200 mm^3, mice were randomized to receive vehicle or RWR18 (25 mg/kg) once every two days for 24 days. […] Bar, 5 mm.
The effects of RWR18 on tumor growth was determined using MCF7 xenograft model. When tumor in SCID mice reaches 150-200 mm^3, mice were randomized to receive vehicle or RWR18 (25 mg/kg) once every two days for 24 days.
The effects of RWR18 on tumor growth was determined using MCF7 xenograft model. When tumor in SCID mice reached 150-200 mm^3, mice were randomized to receive vehicle or RWR18 (25 mg/kg) once every two days for 24 days.

[1] = Plasma stability, incubation with mouse blood plasma, LC-MS; format: in vitro ADME; settings: over the 24 h period, equivalent of 50 mg/kg
Protocol: Representative HE images of liver and spleen from mice treated with vehicle or ARD150. Images from vehicle and the highest doses of ARD150 (125 mg/kg) were shown (B). […] Three biological replicates for each time point.
The potential toxicity of RWR-18 was tested using 9-week-old Balb/c female mice. The mice were injected (i.p.) with vehicle or 10 mg/kg, 25 mg/kg, and 50 mg/kg of RWR-18 (daily for 7 days, 3 mice/group). The body weight was measured daily for 21 days. The liver, spleen, heart, lung, and kidney were collected for macroscopic and histological examination. […] Preliminary plasma kinetic studies were performed. Following the incubation of the equivalent of 50 mg/kg of RWR-18 with blood plasma from mice at 10 min, 30 min, 1 h, 4 h, 16 h, and 24 h, we measured the plasma levels of RWR-18 by LC-MS.

HA-ARID4BAC = target: T1, HA-ARID4BAC (Homo sapiens, UniProt Q4LE39, DEL571-624); experiment: CETSA in HEK-293T cells expressing the chromodomain deletion mutant; format: cell-based; settings: 10 μM, 2 h
T1 construct: transfected with vector, full-length ARID4B or ARID4B deletion mutants; expressed in transfected cells; host or cells: HEK-293T
T1 sequence (Q4LE39 with tags, fused parts or gaps DEL571-624): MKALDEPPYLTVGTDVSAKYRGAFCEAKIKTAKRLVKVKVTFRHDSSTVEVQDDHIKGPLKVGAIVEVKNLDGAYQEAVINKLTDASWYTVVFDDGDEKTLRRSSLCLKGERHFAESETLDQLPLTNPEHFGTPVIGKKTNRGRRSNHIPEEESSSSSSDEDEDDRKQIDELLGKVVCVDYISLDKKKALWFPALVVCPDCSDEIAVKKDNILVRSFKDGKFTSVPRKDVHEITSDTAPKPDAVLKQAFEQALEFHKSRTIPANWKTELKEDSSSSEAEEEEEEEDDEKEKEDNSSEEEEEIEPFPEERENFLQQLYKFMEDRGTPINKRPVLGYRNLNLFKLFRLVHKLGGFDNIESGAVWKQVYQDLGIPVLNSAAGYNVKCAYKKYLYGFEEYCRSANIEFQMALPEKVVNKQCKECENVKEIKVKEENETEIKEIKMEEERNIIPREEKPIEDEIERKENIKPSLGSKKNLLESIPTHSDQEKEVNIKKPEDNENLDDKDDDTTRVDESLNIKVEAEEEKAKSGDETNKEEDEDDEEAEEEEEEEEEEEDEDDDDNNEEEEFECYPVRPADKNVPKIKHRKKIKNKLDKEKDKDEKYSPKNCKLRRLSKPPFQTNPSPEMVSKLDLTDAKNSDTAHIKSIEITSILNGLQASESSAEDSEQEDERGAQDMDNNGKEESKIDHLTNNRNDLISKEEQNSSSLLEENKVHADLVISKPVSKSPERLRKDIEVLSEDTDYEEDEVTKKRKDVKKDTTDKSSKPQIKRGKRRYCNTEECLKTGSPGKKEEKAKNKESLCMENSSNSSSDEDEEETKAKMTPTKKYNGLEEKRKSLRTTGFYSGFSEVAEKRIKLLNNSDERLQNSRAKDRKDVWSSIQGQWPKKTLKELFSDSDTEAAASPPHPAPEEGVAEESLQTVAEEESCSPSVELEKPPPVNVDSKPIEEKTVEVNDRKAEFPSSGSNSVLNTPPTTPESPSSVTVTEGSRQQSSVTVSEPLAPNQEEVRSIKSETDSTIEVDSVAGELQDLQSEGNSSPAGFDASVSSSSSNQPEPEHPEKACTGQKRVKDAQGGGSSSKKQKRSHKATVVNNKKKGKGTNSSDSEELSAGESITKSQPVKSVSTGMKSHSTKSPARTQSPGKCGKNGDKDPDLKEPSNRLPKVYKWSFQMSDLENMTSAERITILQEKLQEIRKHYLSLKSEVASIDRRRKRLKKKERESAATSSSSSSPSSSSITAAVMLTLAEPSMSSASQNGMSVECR
Protocol: (B-C) show cells expressing HA-ARID4B (C) or HA-ARID4BIC (D) treated or not with ARD150 (10 μM) for 2 h were used for CESTA. […] (D-E) show cells expressing HA-ARID4B (D) or Flag-ARID4A (E) treated or not with RWR-18 (10 μM) for 2 h were used for CESTA. […] Data are means±SEM from three experiments. *P<0.05, **P<0.01, ns, not significant.
Using CETSA (cellular thermal shift assay) to examine whether ARD150 or RWR-18 binds to ARID4B, MCF7 cells treated or not with ARD150 or RWR-18 for 2 h were collected, followed by heating at 46, 49, 52, 55, and 58° C. to denature and precipitate ARID4B protein, cell lysis, removal of cell debris and aggregates by centrifugation, and finally detection of remaining thermostable ARID4B protein by western blot. The ARID4B aggregation temperatures without ARD150 were determined to be 49-52° C., but shifted to 52-55° C. after treatment with ARD150 and even more so with RWR-18 (FIG. 15A-D). To determine whether ARD150 and RWR-18 targets the chromodomain of ARID4B, CESTA was performed using chromodomain deletion mutant (ARID4BAC). HEK-293T cells expressing HA-ARID4B or HA-ARID4BAC were treated or not with ARD150 (10 μM) for 2 h and processed for CESTA.

SMILES	tumor growth (MCF7 xenograft)	percentage of apoptotic cells in tumors (MCF7 xenograft; versus vehicle)	reduction in peak area in mouse blood plasma [1]	shift of aggregation temperatures of HA-ARID4BAC (chromodomain deletion mutant) (HA-ARID4BAC)
O=C(COc1ccc(OCc2ccccc2)cc1)NCCCN1CCOCC1 [RWR-18]	inhibited tumor growth	increases	~20%	
COc1ccc(C(=O)NCCCN2CCOCC2)cc1OC [ARD150]				no shift was observed
